Values belong to the substance of their own block, whether it stands above or below them.
Test system: IgE antibodies from patients
Test: Wheat epitope mapping (2): overlapping 10-amino-acid peptide fragments shifted by one amino acid
Type: binding, human
Settings: partial sequence
How it was run: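 Residual binding was banded as <30% none, 30–<50% poor, 50–<70% somewhat poor and ≥70% retained, relative to the parent overlapping sequence set to 100%. Values were chemiluminescent IgE signals from patient sera after subtracting secondary-antibody-only controls. The peptides were spot-synthesised 10-mers shifted by one amino acid.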

Substance: 2723 (KIGG; REGION 1..4: note = epitope) [compound 2723]
Epitope sequence binding to IgE antibody, rank of the sequence (serum of patient P26 (WDEIA)): Key

Substance: 2724 (GIGTVPVGRV; REGION 1..10: note = epitope) [compound 2724]
Epitope sequence binding to IgE antibody, rank of the sequence (serum of patient P26 (WDEIA)): Key

Substance: 2725 (YKIGG; REGION 1..5: note = epitope) [compound 2725]
Epitope sequence binding to IgE antibody, rank of the sequence (serum of patient P27 (WDEIA)): Preferably

Substance: 2726 (KIGG; REGION 1..4: note = epitope) [compound 2726]
Epitope sequence binding to IgE antibody, rank of the sequence (serum of patient P27 (WDEIA)): Key

Substance: 2727 (GIGTVPVGR; REGION 1..9: note = epitope) [compound 2727]
Epitope sequence binding to IgE antibody, rank of the sequence (serum of patient P27 (WDEIA)): Key

Substance: 2730 (YKIGGIGTV; REGION 1..9: note = epitope) [compound 2730]
Epitope sequence binding to IgE antibody, rank of the sequence (serum of patient P28 (WDEIA)): Preferably

Substance: 2731 (YKIGGI; REGION 1..6: note = epitope) [compound 2731]
Epitope sequence binding to IgE antibody, rank of the sequence (serum of patient P28 (WDEIA)): Key

Substance: 2733 (YKIGGI; REGION 1..6: note = epitope) [compound 2733]
Epitope sequence binding to IgE antibody, rank of the sequence (serum of patient P29 (WDEIA)): Preferably

Substance: 2734 (YKIGG; REGION 1..5: note = epitope) [compound 2734]
Epitope sequence binding to IgE antibody, rank of the sequence (serum of patient P29 (WDEIA)): Key

Substance: 2735 (GIGTVPVGRV; REGION 1..10: note = epitope) [compound 2735]
Epitope sequence binding to IgE antibody, rank of the sequence (serum of patient P29 (WDEIA)): Key

Substance: 2736 (YKIGGIGTVP; REGION 1..10: note = epitope) [compound 2736]
Epitope sequence binding to IgE antibody, rank of the sequence (serum of patient P30 (WDEIA)): Preferably

Substance: 2737 (KIGG; REGION 1..4: note = epitope) [compound 2737]
Epitope sequence binding to IgE antibody, rank of the sequence (serum of patient P30 (WDEIA)): Key

Substance: 2738 (VPVGR; REGION 1..5: note = epitope) [compound 2738]
Epitope sequence binding to IgE antibody, rank of the sequence (serum of patient P30 (WDEIA)): Key

More lines, now with the values ahead:

Epitope sequence binding to IgE antibody, rank of the sequence (serum of patient P31 (WDEIA)): Preferably
Substance: 2739 (YKIGGIG; REGION 1..7: note = epitope) [compound 2739]

Epitope sequence binding to IgE antibody, rank of the sequence (serum of patient P31 (WDEIA)): Key
Substance: 2740 (KIGGI; REGION 1..5: note = epitope) [compound 2740]

Epitope sequence binding to IgE antibody, rank of the sequence (serum of patient P31 (WDEIA)): Key
Substance: 2741 (GIGTVPVGRV; REGION 1..10: note = epitope) [compound 2741]

Epitope sequence binding to IgE antibody, rank of the sequence (serum of patient P33 (WDEIA)): Preferably
Substance: 2742 (YKIGGIGTVP; REGION 1..10: note = epitope) [compound 2742]

Epitope sequence binding to IgE antibody, rank of the sequence (serum of patient P33 (WDEIA)): Key
Substance: 2743 (YKIGGIGTV; REGION 1..9: note = epitope) [compound 2743]

Epitope sequence binding to IgE antibody, rank of the sequence (serum of patient P34 (WDEIA)): Preferably
Substance: 2745 (KIGGIG; REGION 1..6: note = epitope) [compound 2745]

Epitope sequence binding to IgE antibody, rank of the sequence (serum of patient P34 (WDEIA)): Key
Substance: 2746 (KIGGI; REGION 1..5: note = epitope) [compound 2746]
